Consider 1 compound from patent publication US20220288068A1, “PHARMACEUTICAL PREPARATION” (MERCK PATENT GMBH, priority 2019, published 2022).

In brackets after ≈: the same amount, converted by molar mass.

Data set [1] in a line: Solubility in biorelevant media (FaSSIF, FeSSIF). As for the experimental part:
Despite such low solubility rather high doses of far above 100 mg are needed for its use in the therapy. […] Accordingly, a pharmaceutical preparation for oral administration must have a high bioavailability to provide the high doses that are needed to achieve the desired therapeutic effect. Otherwise the pharmaceutical preparation would need to have an increased size not usable for its oral administration due to problems with its swallowability.

The nature of data set [2]: Young's modulus by ultrasound-assisted instrumented single punch press. The data set is classed as physicochemical. The note with it: neat substance, in dependence of solid fraction; FIG. 3 and FIG. 4. As for the experimental part: Young's modulus is assessed as an indicator for material stiffness (the higher Young's modulus, the more rigid a substance is) whereby its measurement is done in dependence of the solid fraction, which is complementary to porosity (i.e. solid fraction=1−porosity fraction). With this, a solid fraction of 1 indicates no porosity, i.e. no air entrapped in the solid phase. Pharmaceutical relevant solid fractions usually range from 0.75 to 0.85. Porosities have been determined by nitrogen pycnometry.
The measurements to determine the Young's modulus are conducted on a commercially available instrumented single punch press (Romaco Kilian StylOne system) with ultrasound-assisted measurement punches. For this purpose, neat substances are compacted between the upper and the lower punch, leading to densification of the material. The ultrasound velocity in the sample in dependence of the degree of densification is recorded and used for calculation of Youngs modulus of the specific substance.

A short description of data set [3]: Solubility in oils for SEDDS/SMEDDS. The data set is classed as physicochemical. The note with it: oil or lipid; neutral oil. As to the method: Due to the relatively high doses necessary for therapeutic effect (approximately 500 mg) and a maximal dose in a self-emulsifying capsule formulation (SEDDS or SMEDDS) of not more than 5 mg, the patient would have to take 100 capsules to achieve the target dose.

What is called solubility is the concentration that dissolves in the medium under given conditions. Higher therefore signals a readily soluble substance. On to `CN1CCC(COc2cnc(-c3cccc(Cn4nc(-c5cccc(C#N)c5)ccc4=O)c3)nc2)CC1` [3-(1-{3-[5-(1-Methyl-piperidin-4-ylmethoxy)-pyrimidin-2-yl]-benzyl}-6-oxo-1,6-dihydro-pyridazin-3-yl)-benzonitrile], for which the BCS classification result in data set [1] (Amidon et al., 1995) is on record as “BCS IV”. Besides, the solubility in data set [1] (fassif) was 43 µg/mL (≈ 87.3 µM); in data set [3], below 5000 µg/mL. For the same compound, the “Young's modulus (elastic properties)” value in data set [2] is reported as “distinct lower Young's moduli compared to widely used pharmaceutical fillers”.
